We go through 3 compounds from US20030072716A1, “Renewable, carbohydrate based CO2-philes” (priority 2001, published 2003).

A short description of series [1]: Deliquescence, swelling and dissolution in CO2 in a high-pressure view cell near room temperature. In kind it is physicochemical. As to conditions: for solubility / miscibility in liquid CO2: BGLU at 23.0° C., 60.5 bar. An excerpt: The interaction of BGLU in carbon dioxide was examined in a high-pressure view cell. The BGLU was exposed to carbon dioxide at near room temperature and a pressure of from 35 to 40 bar.
The procedure according to Example 1 was repeated except that the carbon dioxide pressure was 55.9 bar. A solid to liquid transition (i.e., deliquescence) of the BGLU was observed. […] See FIG. 3, Panel (C) and FIG. 3, Panel (D). Upon reaching liquid-vapor equilibrium pressure, the liquid carbon dioxide formed a separate layer on top of the viscous melt containing carbon dioxide.
BGLU is a white solid that melts at 132° C. under atmospheric pressure conditions (FIG. 3, Panel (A)). However, as BGLU is exposed to CO2 near room temperature (23.0° C.) in a conventional high-pressure view cell, it absorbs CO2 and becomes “wetted” with CO2 at a pressure of 35-40 bar. The white solid appears as a salt does in a humid environment. Furthermore, at a gaseous CO2 pressure of 55.9 bar a solid-to-liquid transition (deliquescence) occurs (FIG. 3, Panel (B)). This is analogous to the deliquescence of hygroscopic materials absorbing atmospheric moisture. […] Upon reaching the liquid-vapor equilibrium pressure, the liquid CO2 forms a separate layer on top of the viscous melt containing CO2. However, the melt easily mixes with the upper layer of liquid CO2 on stirring and forms a single-phase liquid mixture in contact with the gaseous CO2 phase (FIG. 3, Panel (E)). Further addition of CO2 only dilutes this liquid phase (FIG. 3F). Although, CO2-induced swelling (Rover et al., (1999) Macromolecules 32: 8965-8973) and CO2-assisted melting point depression (Zhang & Handa, (1997) Macromolecules 30: 8505-8507.) have been reported in polymers by sorption of CO2 under high pressures, the materials are not readily miscible in liquid and supercritical CO2, indicating the lack of a significant attractive interaction.

Series [2] is described as follows: Solubility and cloud-point behaviour in supercritical CO2 at 40 °C. The format is physicochemical. As to conditions: for miscibility with CO2 from cloud-point data: scCO2, 40.0° C., relatively low pressures, up to 30% (wt); for solubility behaviour in supercritical CO2: supercritical CO2, 40° C. On the procedure:
The solubility of BGLU and AGLU in supercritical carbon dioxide were examined at 40° C. […] The behavior is illustrated in FIG. 3. At the cloud point pressure, phase separation commences between the supercritical carbon dioxide and the sugar ester melt. Upon lowering the pressure, the material reappears in the solid state (see FIG. 4).
The cloud-point pressures of these systems in scCO2 were examined at 40.0° C. As in the subcritical case, initially the solid melts and swells (for AGLU and BGLU) and all three peracetylated sugars readily go into a single-phase, scCO2 system. A plot of the cloud-point pressure versus the weight percent for AGLU, BGLU, and BGAL dissolved in supercritical CO2 at 40.0° C. is given in FIG. 4. At the cloud-point pressure, phase separation begins between scCO2 and the sugar ester. Upon lowering the pressure, the material reappears in the solid state. No cloud-point measurements were made above 30% (wt) due to limitations arising from the volume of the view cell and the rapid swelling of the sample in the cases of AGLU and BGLU.

`CC(=O)OC[C@H]1O[C@@H](OC(C)=O)[C@H](OC(C)=O)[C@@H](OC(C)=O)[C@H]1OC(C)=O` [BGAL, beta 1,2,3,4,6-pentaacetyl β-D-galactose]: in series [1] (contact with CO2), the “deliquescence in CO2” value is reported as “does not exhibit deliquescence”. Moreover, the “solubility / miscibility in liquid CO2” value in series [1] is reported as “readily soluble”.
For the compound `CC(=O)OC[C@H]1O[C@@H](OC(C)=O)[C@H](OC(C)=O)[C@@H](OC(C)=O)[C@@H]1OC(C)=O` [BGLU, beta 1,2,3,4,6-pentaacetyl-D-glucose], the “concentration in the CO2-induced melt” value in series [1] (approximate estimate, melt can be diluted with liquid or scCO2 in any proportion) was “more than 80 wt %”. In addition, the “swelling of the melt on CO2 absorption” value in series [1] (changes in gaseous CO2 pressure of only 2 and 3 bar above deliquescence pressure) is reported as “swells to many times its original volume”. Also, in series [1] (gaseous CO2, 23.0° C., high-pressure view cell), the “gaseous CO2 pressure at which solid-to-liquid transition (deliquescence) occurs” value was determined as 55.9 bar. The “solubility / miscibility in liquid CO2” value in series [1] is “complete miscibility”. Also, in series [1] (near room temperature (23.0° C.)), the “CO2 pressure at which the solid absorbs CO2 and becomes wetted” value is 35-40 bar. In series [2], the “miscibility with CO2 from cloud-point data” value is on record as “complete miscibility”; the “solubility behaviour in supercritical CO2” value is “melted, swelled, and readily dissolved”.
For `CC(=O)OC[C@H]1O[C@H](OC(C)=O)[C@H](OC(C)=O)[C@@H](OC(C)=O)[C@@H]1OC(C)=O` [AGLU, alpha 1,2,3,4,6-pentaacetyl-D-glucose], the “deliquescence point, amount lower than that of BGLU” value in series [1] (difference relative to BGLU) is listed as 6-7 bar. For the same compound, in series [2], the “miscibility with CO2 from cloud-point data” value is recorded as “complete miscibility”; the “solubility behaviour in supercritical CO2” value was “melted, swelled, and readily dissolved”.
